Holding throughout (format): binding
Experiment [1] deals with d(A)8. Put plainly: Melting point (Tm) of complex with oligonucleotide by UV absorbance change. The following applies: phosphate pH 7.2. The procedure: (§1) Specifically, the PRNA2 (octamer) (17) was mixed with the oligonucleotide octamer shown in Table 3, the melting point (Tm) was determined by measuring the resulting change in absorbance on a UV spectrum, and the ability of the PRNA2 (octamer) (17) to hybridize with a nucleic acid (complex forming ability) was evaluated from that melting point. Further, for examining the influence of boric acids on the PRNA2 (octamer)-DNA hybrid formation and on the stability thereof, melting point measurements were carried out using the PRNA2 (octamer) (17) and d(A)8 as the binding target oligonucleotide to the PRNA2, namely a complementary compound to (T)8, with and without addition of borax (20 mM), and the melting points were compared. A control run was carried out in the same manner using (T)8 as the binding target oligonucleotide in lieu of d(A) 8.

Experiment [2] concerns (T)8. Nature of the experiment: Melting point (Tm) of complex with oligonucleotide by UV absorbance change, control run. The following applies: phosphate pH 7.2. The procedure:
as §1

For experiment [3], the system named is d(C)8. Put plainly: Melting temperature (Tm) of homopurine PRNA-DNA complex.

Regarding HCl.(isoGln(5′U))8-Lys-OH [PRNA2 (17)], the Tm was less than 0 °C in experiment [1] (binding target d(A)8, 20 mM borax); “below 0 °C” in experiment [1] (binding target d(A)8, 20 mM borax, listed as PRNA2 (octamer)); 52.8 °C in experiment [1] (binding target d(A)8, no additive); less than 0 °C in experiment [2] (binding target (T)8, 20 mM borax); less than 0 °C in experiment [2] (binding target (T)8, no additive).
Turning to “NH2-isoGln(5′I)-isoGln(5′I)-isoGln(5′I)-isoGln(5′I)-isoGln(5′I)-isoGln(5′I)-isoGln(5′I)-isoGln(5′I)-Lys-OH [NH2-IIIIIIII-Lys-OH]”, the Tm in experiment [3] (binding target d(C)8, 20 mM borax) was less than −5 °C; in experiment [3] (binding target d(C)8, no additive) it was 4.8 °C.

(Values after US7442788B2, “Antisense molecules and method of controlling expression of gene function by using the same” (Japan Science and Technology Corporation, priority 2001, dated 2008).)
